Laboratory results published in patent publication US20190105389A1, “ADJUVANT SYSTEM FOR ORAL VACCINE ADMINISTRATION” (Vaxform LLC, priority 2012, published 2019).

How the values were obtained:
[1] = Linkage (adsorption) of CTL receptor agonist to aluminum adjuvant (FIG. 2); assay type: physicochemical; conditions: aluminum oxyhydroxide
Excerpt: However, monosaccharides can be modified by a chemical group including but not limited to fluoride, phosphate, sulfate, or carbonate group which permits a ligand exchange linkage of the molecule to the aluminum-containing adjuvant. Method for modifying saccharides by addition of fluoride, phosphate, sulfate, or carbonate groups is well known in the art (Cantos, et al. Biochem. J. (1993) 288: 155-160; Carbohydrate Chemistry, Royal Society of Chemistry, Ed. RD Guthrie (1968)). This is illustrated in FIG. 2 utilizing mannose as the CTL receptor agonist and aluminum oxyhydroxide. […] However, addition of a phosphate group at the 1 position of mannose (M1P) results in approximately 100% linkage of the CTL agonist to the aluminum adjuvant.
Another method to the increased avidity of the saccharide for the aluminum adjuvant particle is polymerization. For instance the avidity of the saccharide for the aluminum adjuvant particle may be increased by increasing the size of the saccharide by polymerization to produce a polysaccharide. The increase avidity for the aluminum adjuvant is due to the larger number of interactions of a polysaccharide as compared to a monosaccharide to allow for the stable linkage of the polysaccharide agonist to the aluminum adjuvant particle. […]

[2] = Stability of CTL agonist linkage to aluminum particle on exposure to phosphate (FIG. 3A, 3B); assay type: physicochemical; conditions: exposed to 50 mM phosphate pH 7.4 for 30 minutes in the absence of antigen
Excerpt: It is important to maintain the stability of the CTL agonist linkage to the aluminum particle upon exposure to body fluid following administration. Components of interstitial fluid such as phosphate, citrate, and protein have the potential to remove the linkage of the CTL agonist with aluminum-containing adjuvants. The resulting soluble CTL agonist may adversely impact the immune response. FIG. 3A illustrates that M1P as well as mannan maintain approximately 100% linkage with aluminum oxyhydroxide when exposed to 50 mM phosphate pH 7.4 for 30 minutes in the absence of antigen.

Molecule | Linkage of the CTL agonist to the aluminum adjuvant [1] | Linkage with aluminum oxyhydroxide maintained [2]
O=P(O)(O)OC1O[C@H](CO)[C@@H](O)[C@H](O)[C@@H]1O (stereo partly shown) [Formulation M1P, mannose-1-phosphate] | approximately 100% | approximately 100%
mannan | approximately 100% | approximately 100%
